Assays:
Mu-type opioid receptor = Mu-type opioid receptor (Homo sapiens, UniProt P35372); assay: DRUGMATRIX: Opiate mu (OP3, MOP) radioligand binding (ligand: [3H] Diprenorphine); assay type: cell membranes, CHO-K1, Membrane; settings: Not Active = under 50% inhibition at 10 µM
[1] = molecular target: T1, Receptor-type tyrosine-protein phosphatase C (Homo sapiens, UniProt P08575); design: species or system Escherichia coli;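 note: inhibition of CD45 enzyme activity measured using DiFMUP as substrate; in other assays of this panel Not Active means under 50% inhibition at 10 µM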
T1 sequence (P08575 whole entry): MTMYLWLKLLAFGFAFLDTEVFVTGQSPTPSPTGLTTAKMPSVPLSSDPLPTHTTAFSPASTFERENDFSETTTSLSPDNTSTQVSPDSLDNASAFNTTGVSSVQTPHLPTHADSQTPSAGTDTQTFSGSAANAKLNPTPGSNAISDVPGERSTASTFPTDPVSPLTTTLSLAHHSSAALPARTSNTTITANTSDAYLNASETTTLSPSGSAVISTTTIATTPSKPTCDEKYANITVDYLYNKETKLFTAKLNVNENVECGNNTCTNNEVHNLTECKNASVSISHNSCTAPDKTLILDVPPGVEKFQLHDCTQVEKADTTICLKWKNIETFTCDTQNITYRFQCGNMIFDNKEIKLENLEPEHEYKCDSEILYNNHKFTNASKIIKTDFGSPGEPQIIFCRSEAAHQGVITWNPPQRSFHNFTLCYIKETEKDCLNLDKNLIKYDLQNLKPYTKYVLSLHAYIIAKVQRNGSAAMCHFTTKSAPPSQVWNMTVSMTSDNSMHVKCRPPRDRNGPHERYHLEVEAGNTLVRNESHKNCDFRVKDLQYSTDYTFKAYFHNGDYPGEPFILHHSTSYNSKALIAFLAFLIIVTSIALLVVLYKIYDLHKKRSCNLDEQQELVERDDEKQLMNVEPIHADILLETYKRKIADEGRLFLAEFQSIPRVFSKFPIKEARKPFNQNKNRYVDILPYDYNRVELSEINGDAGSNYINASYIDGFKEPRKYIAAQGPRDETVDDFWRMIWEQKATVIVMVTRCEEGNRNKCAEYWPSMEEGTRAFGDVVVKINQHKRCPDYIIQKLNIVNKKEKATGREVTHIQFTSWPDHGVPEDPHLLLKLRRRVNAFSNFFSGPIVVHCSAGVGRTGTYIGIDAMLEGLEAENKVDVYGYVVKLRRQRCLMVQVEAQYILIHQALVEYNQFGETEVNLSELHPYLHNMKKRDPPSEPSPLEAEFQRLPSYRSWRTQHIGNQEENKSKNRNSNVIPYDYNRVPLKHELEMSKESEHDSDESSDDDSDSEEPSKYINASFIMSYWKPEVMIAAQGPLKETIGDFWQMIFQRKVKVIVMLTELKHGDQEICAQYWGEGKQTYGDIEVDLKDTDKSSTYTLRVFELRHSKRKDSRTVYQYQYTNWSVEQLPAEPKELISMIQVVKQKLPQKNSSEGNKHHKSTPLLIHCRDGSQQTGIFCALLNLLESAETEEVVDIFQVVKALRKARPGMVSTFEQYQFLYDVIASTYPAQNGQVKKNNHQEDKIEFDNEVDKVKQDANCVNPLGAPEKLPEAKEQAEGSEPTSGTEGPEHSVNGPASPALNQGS

Cannabinoid receptor 1 = Cannabinoid receptor 1 (Homo sapiens, UniProt P21554); assay type: cell membranes, Chem-1, Membrane; note: in other assays of this panel Not Active means under 50% inhibition at 10 µM
[2] = DRUGMATRIX: Phorbol Ester radioligand binding (ligand: [3H] PDBu); assay type: cell membranes, Mus musculus, ICR, Brain, Membrane; settings: Not Active = under 50% inhibition at 10 µM
[3] = DRUGMATRIX: Glutamate, AMPA radioligand binding (ligand: [3H] AMPA); assay type: cell membranes, Rattus norvegicus, Wistar, Cerebral cortex, Membrane; settings: Not Active = under 50% inhibition at 10 µM
[4] = molecular target: Tyrosine-protein kinase Lck (Homo sapiens, UniProt P06239); assay: DRUGMATRIX: Protein Tyrosine Kinase, LCK enzyme inhibition (substrate: Poly(Glu:Tyr)); assay type: cell-based, Insect cells; settings: Not Active = under 50% inhibition at 10 µM
Thromboxane-A synthase = molecular target: T2, Thromboxane-A synthase (Homo sapiens, UniProt P24557); assay: biochemical; assay type: tissue-based, Platelet;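 note: enzyme inhibition assay with PGH2 supplied as substrate; in other assays of this panel Not Active means under 50% inhibition at 10 µM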
T2 sequence (P24557 whole entry): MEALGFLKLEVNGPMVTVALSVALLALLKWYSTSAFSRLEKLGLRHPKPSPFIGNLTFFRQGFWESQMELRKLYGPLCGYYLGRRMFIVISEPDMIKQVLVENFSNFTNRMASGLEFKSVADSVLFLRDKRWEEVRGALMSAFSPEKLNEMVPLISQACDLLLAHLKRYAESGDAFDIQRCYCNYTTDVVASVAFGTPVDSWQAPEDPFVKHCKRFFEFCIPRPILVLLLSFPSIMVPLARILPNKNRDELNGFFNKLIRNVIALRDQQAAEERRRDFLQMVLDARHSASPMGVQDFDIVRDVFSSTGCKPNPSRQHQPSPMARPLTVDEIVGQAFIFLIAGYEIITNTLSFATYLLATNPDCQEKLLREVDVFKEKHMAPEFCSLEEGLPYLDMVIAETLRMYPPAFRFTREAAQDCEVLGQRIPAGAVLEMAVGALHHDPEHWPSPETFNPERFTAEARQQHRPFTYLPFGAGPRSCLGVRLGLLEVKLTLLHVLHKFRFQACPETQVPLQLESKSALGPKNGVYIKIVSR

Chain of Mu-type opioid receptor (P35372 whole entry): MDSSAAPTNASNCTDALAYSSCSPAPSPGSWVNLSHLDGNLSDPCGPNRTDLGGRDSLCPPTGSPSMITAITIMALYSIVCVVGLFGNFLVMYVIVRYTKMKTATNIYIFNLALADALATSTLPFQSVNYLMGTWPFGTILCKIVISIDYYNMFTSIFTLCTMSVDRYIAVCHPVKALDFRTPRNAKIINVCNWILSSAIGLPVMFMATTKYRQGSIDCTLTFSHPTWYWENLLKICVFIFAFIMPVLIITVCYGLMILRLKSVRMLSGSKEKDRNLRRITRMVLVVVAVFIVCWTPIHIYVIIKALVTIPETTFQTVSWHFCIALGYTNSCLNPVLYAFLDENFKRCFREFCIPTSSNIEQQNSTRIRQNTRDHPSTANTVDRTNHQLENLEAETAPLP
Chain of Tyrosine-protein kinase Lck (P06239 whole entry): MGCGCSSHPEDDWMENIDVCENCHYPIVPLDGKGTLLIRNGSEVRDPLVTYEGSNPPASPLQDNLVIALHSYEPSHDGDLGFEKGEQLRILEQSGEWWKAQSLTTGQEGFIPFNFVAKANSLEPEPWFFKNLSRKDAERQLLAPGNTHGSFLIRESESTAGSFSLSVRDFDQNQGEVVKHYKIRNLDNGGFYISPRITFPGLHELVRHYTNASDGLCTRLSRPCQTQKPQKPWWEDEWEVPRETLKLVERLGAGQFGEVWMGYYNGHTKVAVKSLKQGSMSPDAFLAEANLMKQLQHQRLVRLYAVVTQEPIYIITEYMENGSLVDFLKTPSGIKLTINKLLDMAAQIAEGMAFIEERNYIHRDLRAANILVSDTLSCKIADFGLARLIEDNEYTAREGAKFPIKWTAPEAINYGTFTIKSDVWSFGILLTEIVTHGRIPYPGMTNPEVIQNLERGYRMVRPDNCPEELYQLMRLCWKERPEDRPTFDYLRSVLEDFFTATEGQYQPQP
Chain of Cannabinoid receptor 1 (P21554 whole entry): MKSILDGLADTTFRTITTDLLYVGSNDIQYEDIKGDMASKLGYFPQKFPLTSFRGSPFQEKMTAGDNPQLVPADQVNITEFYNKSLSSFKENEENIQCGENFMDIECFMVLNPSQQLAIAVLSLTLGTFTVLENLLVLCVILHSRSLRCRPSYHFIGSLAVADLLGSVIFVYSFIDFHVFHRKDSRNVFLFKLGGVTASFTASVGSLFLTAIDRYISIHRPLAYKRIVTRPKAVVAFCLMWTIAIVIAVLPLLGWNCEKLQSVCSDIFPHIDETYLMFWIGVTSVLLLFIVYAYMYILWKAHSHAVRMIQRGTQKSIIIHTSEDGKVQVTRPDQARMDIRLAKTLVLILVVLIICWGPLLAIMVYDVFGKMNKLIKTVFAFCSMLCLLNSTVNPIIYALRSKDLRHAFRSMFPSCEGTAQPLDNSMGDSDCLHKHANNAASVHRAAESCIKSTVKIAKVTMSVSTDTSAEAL

Compound	IC50 (Mu-type opioid receptor; cho-k1)	IC50 [1]	IC50 (Cannabinoid receptor 1; chem-1)	IC50 [2]	Ki [2]	IC50 [3]	Ki [3]	IC50 ([4]; insect cells)	IC50 (Thromboxane-A synthase; platelet)	IC50 ([4]; read-out: IC50)	Ki [1]	Ki (Cannabinoid receptor 1; chem-1)	Ki ([4]; insect cells)	Ki (Thromboxane-A synthase; platelet)	Ki (Mu-type opioid receptor)	IC50 (Mu-type opioid receptor; read-out: IC50)	IC50 (Cannabinoid receptor 1; read-out: IC50)	Ki (Cannabinoid receptor 1; read-out: Ki)	IC50 (Thromboxane-A synthase; read-out: IC50)
CC(c1cc2ccccc2s1)N(O)C(N)=O (configuration not stated) [ZILEUTON]	Not Active	Not Active	Not Active	Not Active	Not Active	Not Active	Not Active	Not Active	Not Active	–	–	–	–	–	–	–	–	–	–
O=C1Nc2ccc(Cl)cc2C(c2ccccc2Cl)=NC1O (configuration not stated) [LORAZEPAM]	Not Active	Not Active	Not Active	Not Active	Not Active	Not Active	Not Active	Not Active	Not Active	–	–	–	–	–	–	–	–	–	–
CCN(CC)CCOc1ccc(/C(=C(/Cl)c2ccccc2)c2ccccc2)cc1 [ENCLOMIPHENE]	Not Active	Not Active	Not Active	–	–	–	–	Not Active	Not Active	–	–	–	–	–	–	–	–	–	–
CC(C)Cc1ccc([C@@H](C)C(=O)O)cc1 [(R)-IBUPROPHEN]	Not Active	Not Active	Not Active	Not Active	Not Active	Not Active	Not Active	Not Active	Not Active	–	–	–	–	–	–	–	–	–	–
O=C(Nc1ccc(Br)cc1)c1cc(Br)cc(Br)c1O [TRIBROMSALAN]	–	Not Active	Not Active	Not Active	Not Active	Not Active	Not Active	–	Not Active	5020 nM	–	–	–	–	–	–	–	–	–
CN(C/C=C/C#CC(C)(C)C)Cc1cccc2ccccc12 [TERBINAFINE]	Not Active	Not Active	Not Active	Not Active	Not Active	Not Active	Not Active	Not Active	Not Active	–	–	–	–	–	–	–	–	–	–
Cn1c(=O)c2nc[nH]c2n(C)c1=O.O [THEOPHYLLINE]	Not Active	Not Active	Not Active	Not Active	Not Active	Not Active	Not Active	Not Active	Not Active	–	–	–	–	–	–	–	–	–	–
CC(C)NCC(O)c1ccc(NS(C)(=O)=O)cc1 (configuration not stated) [SOTALOL]	Not Active	Not Active	Not Active	Not Active	Not Active	Not Active	Not Active	Not Active	Not Active	–	–	–	–	–	–	–	–	–	–
CO[C@@H]1[C@@H](OC)[C@H](C)[C@@](O)(CC(=O)O)O[C@H]1[C@H](C)[C@H]1O[C@@]2(CC[C@@](C)([C@H]3CC[C@@](C)([C@@H]4O[C@@H]([C@H]5O[C@](C)(O)[C@H](C)C[C@@H]5C)C[C@@H]4O[C@@H]4C[C@H](OC)[C@@H](OC)[C@H](C)O4)O3)O2)C[C@H](O)[C@H]1C [MADURAMICIN ACID]	Not Active	Not Active	Not Active	Not Active	Not Active	Not Active	Not Active	Not Active	Not Active	–	–	–	–	–	–	–	–	–	–
SODIUM ORTHOVANAD	–	Not Active	Not Active	Not Active	Not Active	Not Active	Not Active	Not Active	Not Active	–	Not Active	Not Active	Not Active	Not Active	–	–	–	–	–
Cc1cccc(C)c1OCC(C)N (configuration not stated) [MEXILETINE]	Not Active	Not Active	–	Not Active	Not Active	Not Active	Not Active	Not Active	Not Active	–	–	Not Active	–	–	–	–	–	–	–
CC(C)NCC(O)c1ccc(O)c(O)c1 (configuration not stated) [ISOPROTERENOL]	Not Active	Not Active	Not Active	Not Active	Not Active	Not Active	Not Active	Not Active	Not Active	–	–	–	–	–	–	–	–	–	–
NC1CCN(c2nc3c(cc2F)c(=O)c(C(=O)O)cn3-c2ccc(F)cc2F)C1 (configuration not stated) [TOSUFLOXACIN]	Not Active	Not Active	Not Active	Not Active	Not Active	Not Active	Not Active	Not Active	Not Active	–	–	–	–	–	–	–	–	–	–
COc1ccc(CCN(C)CCCC(C#N)(c2ccc(OC)c(OC)c2)C(C)C)cc1OC (configuration not stated)	Not Active	Not Active	Not Active	Not Active	Not Active	Not Active	Not Active	Not Active	Not Active	–	–	–	–	–	–	–	–	–	–
CN[C@H]1CC[C@@H](c2ccc(Cl)c(Cl)c2)c2ccccc21 [SERTRALINE]	Not Active	Not Active	Not Active	–	–	–	–	Not Active	Not Active	–	–	–	–	–	–	–	–	–	–
O=C(Oc1ccccc1C(=O)O)c1ccccc1O [SALSALATE]	Not Active	Not Active	Not Active	Not Active	Not Active	Not Active	Not Active	Not Active	Not Active	–	–	–	–	–	–	–	–	–	–
Fc1ccc(C(c2ccc(F)cc2)N2CCN(C/C=C/c3ccccc3)CC2)cc1 [FLUNARIZINE]	–	Not Active	–	–	–	–	–	Not Active	Not Active	–	–	–	–	–	2120 nM	5240 nM	3030 nM	2390 nM	–
CC[C@@H](C(=O)[C@@H](C)[C@@H](O)[C@H](C)[C@@H]1O[C@@H]([C@@H](CC)C(=O)O)CC[C@@H]1C)[C@H]1O[C@]2(C=C[C@@H](O)[C@]3(CC[C@@](C)([C@H]4CC[C@](O)(CC)[C@H](C)O4)O3)O2)[C@H](C)C[C@@H]1C [SALINOMYCIN]	–	Not Active	Not Active	Not Active	Not Active	Not Active	Not Active	Not Active	Not Active	–	–	–	–	–	–	–	–	–	–
CN(C)CCOC(c1ccccc1)c1ccccc1 [DIPHENHYDRAMINE]	Not Active	Not Active	Not Active	–	–	–	–	Not Active	Not Active	–	–	–	–	–	–	–	–	–	–
MANGANESE CHLORIDE ANHYDROUS	–	Not Active	Not Active	Not Active	Not Active	Not Active	Not Active	Not Active	Not Active	–	Not Active	Not Active	Not Active	Not Active	–	–	–	–	–
CNCCC(Oc1ccc(C(F)(F)F)cc1)c1ccccc1 (configuration not stated) [FLUOXETINE]	Not Active	Not Active	Not Active	–	–	–	–	Not Active	Not Active	–	–	–	–	–	–	–	–	–	–
Cc1ccc(NC(=O)c2ccc(CN3CCN(C)CC3)cc2)cc1Nc1nccc(-c2cccnc2)n1 [IMATINIB]	Not Active	Not Active	Not Active	–	–	–	–	–	–	–	–	–	–	–	–	–	–	–	198 nM
Clc1ccc(COC(Cn2ccnc2)c2ccc(Cl)cc2Cl)cc1 (configuration not stated) [ECONAZOLE]	–	Not Active	–	–	–	–	–	Not Active	–	–	–	–	–	–	–	–	–	–	29 nM

Source: ChEMBL document CHEMBL1909046, “DrugMatrix in vitro pharmacology data”
